B1: humanized TRA-8: humanized TRA-8, cotransfection of pHB14-1 and pSR/M2-1 (H2 type heavy chain, LM2 light chain) (antibody)
VH: EVMLVESGGGLVQPGGSLRLSCAASGFTFSSYVMSWVRQAPGKGLEWVATISSGGSYTYYPDSVKGRFTISRDNAKNTLYLQMNSLRAEDTAVYYCARRGDSMITTDYWGQGTLVTVSS
light: DIVMTQSPSSLSASVGDRVTITCKASQDVGTAVAWYQQKPGKAPKLLIYWASTRHTGVPSRFSGSGSGTDFTLTISSLQPEDFATYYCQQYSSYRTFGQGTKVEIKRTVAAPSVFIFPPSDEQLKSGTASVVCLLNNFYPREAKVQWKVDNALQSGNSQESVTEQDSKDSTYSLSSTLTLSKADYEKHKVYACEVTHQGLSSPVTKSFNRGEC

Assays:
[1] = system: Human prostate cancer cell line PC-3; assay: Combination study with Paclitaxel, XTT; type: cell-based; conditions: 24 h
Experimental: Human prostate cancer cell line PC-3 is obtained from American Tissue Culture Collection (ATCC) and maintained in F-12K Nutrient Mixture (21127-022, Gibco BRL) containing 10% fetal bovine serum (FBS, Hyclone), 1% L-Glutamine-200 mM (25030-149, Gibco BRL) and 0.5% Penicillin Streptomycin Solution (P-7539, Sigma). RPMI1640 medium (MED-008, IWAKI) supplemented with 10% FBS and 0.5% Penicillin Streptomycin Solution is used in the following experiment. Exponentially growing PC-3 cells are collected by trypsinization and washed twice with fresh medium. The cells are then counted, resuspended in fresh medium at a density of 5×10^4 cells/ml and distributed in triplicate into flat-bottomed 96 well plates (3598, Coming-Coster) in a total volume of 100 μl/well one day before the start of the experiment. A representative anti-cancer drug, Paclitaxel (169-18611, Wako) dissolved in dimethylsulfoxide (10 mg/ml) is diluted in fresh medium and then added to the 96-well plates containing the cells at 50 μl/well. The final concentrations of dimethylsulfoxide are less than 0.1%. […] After incubation for a further 24 hr, 50 μl of Minimum Essential Medium (11095-098, Gibco BRL) containing 1 mg/ml of XTT and […] of PMS is added to the wells and the plates are incubated for 6 hr. OD450 is then measured by SPECTRA MAX 250 (Molecular Devices) and the cell viability is calculated as follows.

[2] = system: 2LMP human breast cancer xenografts; assay: 2LMP breast cancer xenografts in athymic nude mice; type: in vivo
Experimental: Nude mice were inoculated s.c. with the human breast cancer cell line, 2LMP. Treatment with i.p. doses of 200 μg of 2E12 occurred on days 7, 10, 14, 17, 21, and 24 after tumor cell injection. Animals received i.v. adriamycin (doxorubicin) (6 mg/kg) on days 8, 12, and 16.
Athymic nude mice were injected s.c. with 3×10^7 2LMP cells. […] The growth of tumors was monitored over time. […] Tumor size and regression rates were determined.
Data from 6 independent experiments were analyzed by individual experiment. Treatment combinations were compared with respect to in vivo anti-tumor efficacy, i.e., inhibition of tumor growth, which was measured as three endpoints; extension of tumor doubling times, percentage of tumor regressions, and growth rates over time. The actual number of days at which the tumor doubled in surface area (product of two diameters) relative to baseline on day 7 after tumor cell injection was used in the doubling time analysis. The nonparametric Kruskal-Wallis test was used for median tumor doubling time comparisons between treatments. Fisher's exact test was used to compare the proportions of tumor regressions and relapse-free regressions across treatment groups. To determine if any combination therapy produced significant synergistic inhibition of tumor growth, i.e., more than additive, the growth curves from the serial area measurements were compared using a linear mixed model approach over the first 3 weeks after start of therapy (Lindsey, J. K. Models for Repeated Measurements, pp. 100-142, Oxford, 1993). To test for synergistic effects of the combination therapies, an interaction term was included in the model. If the interaction term was significant and the effect was inhibition of growth at a rate greater than additive then the interaction was considered synergistic.
A total of 166 animals, 10 treatment groups, and 6 independent experiments were included in the aggregate analysis. Treatment combinations were compared with respect to in vivo anti-tumor efficacy. The median tumor doubling times were analyzed using the Kruskal-Wallis test and Fisher's exact test was used to compare the proportions of tumor regressions and relapse-free regressions across treatment groups.

[3] = system: 2LMP xenografts; assay: TUNEL analysis of apoptosis in xenografts; type: in vivo, athymic nude mice; conditions: day 14; untreated 1%
Experimental: One group of mice was untreated. The xeno grafts were dissected for the study of apoptosis on day 14 after tumor cell injection. The reason for the substantial reduction in treatment intensity compared to our standard treatment protocol was to allow adequate tumor tissue for analysis on day 14. Tunel assay for apoptosis in tumor xenografts was performed as follows. Five-micron paraffin sections of tissue were mounted on Superfrost/Plus slides and heated at 58° C. for 1 h. Tissue sections were deparaffinized in three changes of xylene and rehydrated with one change of absolute ethanol, 95% ethanol, and 70% ethanol, each in 5-min increments. Then, the sections were placed in Tris-buffered saline (0.5M Tris base, 0.15 M NaCl, 0.0002% Triton X-100, pH 7.6). Apoptotic nuclei were detected using an Apop Tag Peroxidase kit (Intergen, Purchase, N.Y.). Proteinase K (20 μg/ml in distilled deionized H2O) was added to the tissue specimens and incubated at room temperature for 15 min. Endogenous peroxidases were quenched with an aqueous solution of 3% hydrogen peroxide for 5 min. […] Approximately 10 random fields were evaluated for percentage of Tunel stained and percentage of intensely stained apoptotic bodies throughout the tissue.

[4] = system: Jurkat cells; assay: Apoptosis-inducing activity of humanized antibody, XTT; type: cell-based, human; conditions: 12 hours
Experimental: Jurkat cells cultured in RPM11640 medium with 10% FCS (Gibco BRL) at 37° C. for 3 days in the presence of 5% CO2 are dispensed into each well of a 96-well microplate (Sumitomo Bakelite) at 50 μl per well. […] Each of the solutions of the expression products thus adjusted to 100 ng/ml is used to produce serial dilutions by repeating serial 2-fold dilution with RPM1640 containing 10% FCS. […] After reacting at 37° C. for 12 hours, 50 μl of 25 μM PMS (phenazine methosulfate; Sigma Chemical Co.) containing 1 mg/ml XTT (2,3-bis[2-methoxy-4-nitro-5-sulfophenyl]-2H-tetrazolium-5-carboxyaniride inner salt; Sigma Chemical Co.) is added (final concentrations of 250 μg/ml for XTT and 5 μM for PMS). After incubating for 3 hours, the absorbance at 450 nm of each well is measured to calculate the cell viability by using the reduction ability of mitochondria as the index.
The viability of the cells in each well is calculated according to the following formula: Viability (%)=100×(a−b)/(c−b) wherein “a” is the measurement of a test well, “b” is the measurement of a well with no cells, and “c” is the measurement of a well with no antibody added.
Jurkat cells cultured in RPMI1640 medium with 10% FCS (Gibco BRL) at 37° C. for 3 days in the presence of 5% CO2 are dispensed into each well of a 96-well microplate (Sumitomo Bakelite) at 50 μl per well. […]

[5] = aggregate, number of animals (%)

| Molecule | viability at 0.0001 µg/mL [1] | Complete Regressions No relapse (%) [2, 5] | Complete Regressions Total (%) [2, 5] | complete regressions of tumor ([2]; individual experiments (FIG. 25-27), animals) | intense TUNEL stained cells [3] | apoptosis-inducing activity [4] |
| --- | --- | --- | --- | --- | --- | --- |
| CC(=O)O[C@H]1C(=O)[C@@]2(C)[C@H]([C@H](OC(=O)c3ccccc3)[C@]3(O)C[C@H](OC(=O)[C@H](O)[C@@H](NC(=O)c4ccccc4)c4ccccc4)C(C)=C1C3(C)C)[C@]1(OC(C)=O)CO[C@@H]1C[C@@H]2O [Paclitaxel] | > 40% | 0 | 0 | none | 2% |  |
| B1 |  |  |  |  |  | induce apoptosis |

From patent US7476383B2, “Antibody selective for DR4 and uses thereof” (The UAB Research Foundation, priority 2000, dated 2009)
